Measurements published in patent publication US6333422A, “Thermosensitive cyclotriphosphazene-platinum complex conjugate, its preparation method and anticancer agent containing the same” (Korea Institute of Science and Technology, priority 2000, dated 2001).

Assays:
[1] = Lower critical solution temperature (LCST, cloud point) by UV/VIS spectrophotometer; assay type: physicochemical
From the text: Thermosensitive polymers in the present invention refer to the polymers that can be solubilized in water at low temperatures but precipitates above a certain critical temperature due to the rapid decrease of their water-solubility. When such a phase transition is reversible, the phase transition temperature is called a lower critical solution temperature(LCST) or a cloud point. Below LCST, the hydrogen bonding between the polymer-water molecules is stronger than the hydrophobic interaction between the polymer-polymer molecules. As the temperature increases, however, the hydrogen bonding between the polymer-water molecules weakens whereas the hydrophobic interaction between the polymer-polymer molecules increases resulting in the precipitation of polymers in aqueous solution.
Elemental analysis of carbon, hydrogen, nitrogen in the compounds of the present invention was performed in the Special Analysis Center at KIST by using carbon, hydrogen and nitrogen analyzer (Perkin Elmer), and phosphorous and platinum analysis was performed using Polyscan 61E ICP. Hydrogen and phosphorous nuclear magnetic resonance spectra were obtained using Varian to Gemini-300, and LCST was measured by using Perkin-Elmer Lamda 18 UV/VIS spectrophotometer.

[2] = system: mouse leukemia L1210 cell line; assay: In vivo (i.p.) activity: survival of BDF1 mice implanted i.p. with leukemia L1210 cells
Method: 2. Determination of in vivo (i.p.) activity
(1) Samples: Example 2, Example 6, Example 7 and Example 11
(§1) (2) Cancer cell line: mouse leukemia L1210 cell line
(3) Experimental method: The leukemia L1210 cells(1×10^5 cells/0.1 ml) obtained from DBA/2 donor mice were injected intraperitoneally to the BDF1 mice (6-8 weeks old, 8 mice per group). The samples were either dissolved in PBS solution or suspended in 0.5% Tween 80 depending on their solubility. These sample solutions were administered via intraperitoneal injection once a day for 5 consecutive days or at day 1, 5, and 9 after the cancer cell implantation at variable dosages. The survival rate was determined by observing the mice each day. By comparing with the average survival time of the control group (where no chemical treatment was performed), the percent average increase in the survival time(T/C, %) was calculated to determine the anticancer activity.

[3] = system: mouse leukemia L1210 cell line; assay: In vitro cell growth inhibition of mouse leukemia L1210 cells (trypan blue dye exclusion); assay type: cell-based; conditions: viable cell number after 24, 48 and 72 hours, read-out: ED50 (concentration exhibiting 50% of cell growth inhibition)
Method: 1. Determination of in vitro activity
as §1
After adding the samples each serially diluted by logarithmic dose to the cells, cells were cultured in an incubator at 37° C. and under 5% CO2 atmosphere.
The viable cell number was determined after 24, 48 and 72 hours by using trypan blue dye exclusion test.

[4] = M. J. Cleare, Biochimie 60, 835 (1978); cited from earlier work

| Compound | Lower critical solution temperatures [1] | IC50 [3] [nM] | further results |
| --- | --- | --- | --- |
| {NP[(OCH2 CH2)2 OC2 H5 ][L-Mal.Pt(dach)]}3 [Example 5] | 39.0 °C | – | – |
| {NP[(OCH2 CH2)2 OCH3 ][L-Glu.Pt(dach)]}3 [Example 4] | 82.0 °C | – | – |
| {NP[(OCH2 CH2)2 OCH3 ][L-Asp.Pt(dmpda]}3 [Example 1] | 98.0 °C | – | – |
| {NP[(OCH2 CH2)2 OCH3 ][L-Asp.Pt(dmach)]}3 [Example 3] | 74.5 °C | – | – |
| {NP[(OCH2 CH2)2 OC3 H7 ][L-Asp.Pt(dach)]}3 [Example 9] | 22.0 °C | – | – |
| {NP[(OCH2 CH2)2 OC4 H9 ][L-Asp.Pt(dach)]}3 [Example 10] | 12.0 °C | – | – |
| N.N.O=C([O-])C1(C(=O)[O-])CCC1.[Pt+2] [Carboplatin, reference compound] | – | 5900 | T/C (survival time vs control) ([2]; dose 40 mgkg^-1): 168.0%; LD50 [4]: 180 mg/kg |
| {NP[(OCH2 CH2)2 OC2 H5 ][L-Asp.Pt(dach)]}3 [Example 7] | 42.0 °C | 400 | T/C (survival time vs control) ([2]; dose 40 mgkg^-1): 200.8%; T/C (survival time vs control) ([2]; dose 60 mgkg^-1): 226.7%; T/C (survival time vs control) ([2]; dose 80 mgkg^-1): > 271.7% |
| {NP[(OCH2 CH2)12 OCH3 ][L-Asp.Pt(dach)]}3 [Example 12] | above 100 °C | – | – |
| {NP[(OCH2 CH2)2 OC2 H5 ][L-Asp.Pt(dmach)]}3 [Example 8] | 35.0 °C | – | – |
| {NP[(OCH2 CH2)2 OC2 H5 ][L-Asp.Pt(dmpda)]}3 [Example 6] | 46.5 °C | – | T/C (survival time vs control) ([2]; dose 30 mgkg^-1): 146.1%; T/C (survival time vs control) ([2]; dose 60 mgkg^-1): 162.0% |
| {NP[(OCH2 CH2)2 OCH3 ][L-Asp.Pt(dach)]}3 [Example 2] | 92.0 °C | 400 | T/C (survival time vs control) ([2]; dose 30 mgkg^-1): 217.3%; T/C (survival time vs control) ([2]; dose 60 mgkg^-1): > 293.8%; T/C (survival time vs control) ([2]; dose 90 mgkg^-1): > 511.0% |
| N.N.[Cl][Pt][Cl] [Cisplatin, reference compound] | – | 700 | T/C (survival time vs control) ([2]; dose 4 mgkg^-1): 163.0% |
| {NP[(OCH2 CH2)7 OCH3 ][L-Asp.Pt(dach)]}3 [Example 11] | 84.0 °C | 200 | T/C (survival time vs control) ([2]; dose 30 mgkg^-1): 197.0%; T/C (survival time vs control) ([2]; dose 60 mgkg^-1): 229.2%; T/C (survival time vs control) ([2]; dose 90 mgkg^-1): 204.2% |
